The text below walks through data of paper PMC6803673, “Molecular features of the UNC-45 chaperone critical for binding and folding muscle myosin” (Nature Communications, 2019).

Series [1] deals with T1, MHC-B (myosin II heavy chain isoform B, UNC-54) motor domain (Caenorhabditis elegans, UniProt P02566).
T1 construct: motor domain, residues 1-790, C-terminal His6-tag, co-expressed with C. elegans UNC-45 in High Five insect cells, monomeric
T1 sequence (P02566 1-790): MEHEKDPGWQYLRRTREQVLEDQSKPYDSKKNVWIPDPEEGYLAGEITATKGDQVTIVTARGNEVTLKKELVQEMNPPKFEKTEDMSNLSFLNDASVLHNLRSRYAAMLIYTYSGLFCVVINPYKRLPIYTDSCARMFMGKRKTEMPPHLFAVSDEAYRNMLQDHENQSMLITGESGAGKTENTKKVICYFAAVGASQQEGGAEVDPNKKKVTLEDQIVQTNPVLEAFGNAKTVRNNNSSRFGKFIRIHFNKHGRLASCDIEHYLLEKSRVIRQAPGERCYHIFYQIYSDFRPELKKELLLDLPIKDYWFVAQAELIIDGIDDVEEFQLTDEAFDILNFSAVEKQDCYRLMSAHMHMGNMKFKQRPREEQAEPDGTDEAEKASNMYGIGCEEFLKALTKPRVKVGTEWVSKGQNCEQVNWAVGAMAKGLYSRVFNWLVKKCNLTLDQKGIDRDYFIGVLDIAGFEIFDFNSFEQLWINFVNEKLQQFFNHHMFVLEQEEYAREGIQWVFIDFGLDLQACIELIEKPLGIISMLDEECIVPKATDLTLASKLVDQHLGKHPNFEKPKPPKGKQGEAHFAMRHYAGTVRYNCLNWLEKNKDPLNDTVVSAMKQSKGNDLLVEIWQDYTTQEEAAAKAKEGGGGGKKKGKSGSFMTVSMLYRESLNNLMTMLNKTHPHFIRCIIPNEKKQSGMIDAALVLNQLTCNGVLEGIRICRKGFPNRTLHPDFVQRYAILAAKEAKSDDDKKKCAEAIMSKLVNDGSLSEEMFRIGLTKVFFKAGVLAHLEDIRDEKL
The experiment in a line: stopped-flow single turnover, intrinsic tryptophan fluorescence. The format is biochemical. The settings on record: no actin; 20 mM MOPS pH 7.0, 25 mM KCl, 5 mM MgCl2, 20 °C.

The target in series [2] is T1, MHC-B (myosin II heavy chain isoform B, UNC-54) motor domain. As to the kind of experiment: X-ray crystal structure, […] A. To be noted: nucleotide-binding pocket of the motor domain; crystals pH 6.5, 4 °C.
In series [3] the target is T2, UNC-45 wild type (bacterial) (C. elegans, UniProt G5EG62 1-961).
T2 construct: UNC-45, C. elegans myosin chaperone, wild type; also called wt UNC-45; wt chaperone; source: E. coli BL21(RIL), purified (NiNTA, anion exchange, SEC)
T2 sequence: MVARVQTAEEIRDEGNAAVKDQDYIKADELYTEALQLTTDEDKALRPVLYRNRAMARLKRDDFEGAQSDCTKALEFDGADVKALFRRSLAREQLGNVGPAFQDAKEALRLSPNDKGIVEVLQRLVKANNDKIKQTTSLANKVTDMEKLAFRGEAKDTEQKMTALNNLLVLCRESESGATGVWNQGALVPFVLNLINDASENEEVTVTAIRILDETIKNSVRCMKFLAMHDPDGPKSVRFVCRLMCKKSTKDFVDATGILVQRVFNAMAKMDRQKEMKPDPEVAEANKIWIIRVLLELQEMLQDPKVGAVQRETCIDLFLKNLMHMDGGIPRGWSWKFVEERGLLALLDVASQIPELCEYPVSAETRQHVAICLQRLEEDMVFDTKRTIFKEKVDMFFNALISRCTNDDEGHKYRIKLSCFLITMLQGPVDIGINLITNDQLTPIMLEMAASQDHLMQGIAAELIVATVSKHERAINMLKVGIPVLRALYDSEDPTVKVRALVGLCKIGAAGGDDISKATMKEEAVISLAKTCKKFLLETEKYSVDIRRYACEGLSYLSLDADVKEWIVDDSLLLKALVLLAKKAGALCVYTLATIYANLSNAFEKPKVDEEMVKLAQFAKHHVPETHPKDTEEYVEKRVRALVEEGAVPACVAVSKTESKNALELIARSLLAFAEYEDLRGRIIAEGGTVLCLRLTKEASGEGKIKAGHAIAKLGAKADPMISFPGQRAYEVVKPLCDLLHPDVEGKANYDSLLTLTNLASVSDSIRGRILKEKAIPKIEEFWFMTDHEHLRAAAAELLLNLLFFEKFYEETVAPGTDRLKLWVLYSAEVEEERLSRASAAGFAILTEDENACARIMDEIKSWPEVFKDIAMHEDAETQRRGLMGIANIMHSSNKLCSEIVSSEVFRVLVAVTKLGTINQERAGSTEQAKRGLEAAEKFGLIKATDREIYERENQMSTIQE
As to the kind of experiment: SEC; myosin incubated at 27 °C for 60 min, then with UNC-45 (wild-type or ts-mutant) on ice for 60 min; S200 PC 3.2 column, 20 mM Tris pH 8.0, 150 mM NaCl. The settings on record: both partners purified.

Series [4] concerns the molecule itself. The experiment in a line: crystal structure; UNC-45 mutant crystals grown by sitting drop vapor diffusion at 19 °C.

In the case of `Nc1ncnc2c1ncn2[C@@H]1O[C@H](COP(=O)(O)OP(=O)(O)OP(=O)(O)O)[C@@H](O)[C@H]1O` [ATP], the “stopped-flow single turnover, intrinsic tryptophan fluorescence” value in series [1] is listed as “Upon ATP binding to the myosin motor domain Trp fluorescence is enhanced”.

Turning to `Nc1ncnc2c1ncn2[C@@H]1O[C@H](COP(=O)(O)OP(=O)(O)O)[C@@H](O)[C@H]1O` [ADP], in series [2], the “X-ray crystal structure, 1.9 A” value was “we crystallized MHC-B and determined the structure of the ADP-bound state”.

B1: MHC-B muscle myosin motor domain (residues 1–790) (domain or fragment, C. elegans, UniProt P02566 1-790, looked up)
chain: MEHEKDPGWQYLRRTREQVLEDQSKPYDSKKNVWIPDPEEGYLAGEITATKGDQVTIVTARGNEVTLKKELVQEMNPPKFEKTEDMSNLSFLNDASVLHNLRSRYAAMLIYTYSGLFCVVINPYKRLPIYTDSCARMFMGKRKTEMPPHLFAVSDEAYRNMLQDHENQSMLITGESGAGKTENTKKVICYFAAVGASQQEGGAEVDPNKKKVTLEDQIVQTNPVLEAFGNAKTVRNNNSSRFGKFIRIHFNKHGRLASCDIEHYLLEKSRVIRQAPGERCYHIFYQIYSDFRPELKKELLLDLPIKDYWFVAQAELIIDGIDDVEEFQLTDEAFDILNFSAVEKQDCYRLMSAHMHMGNMKFKQRPREEQAEPDGTDEAEKASNMYGIGCEEFLKALTKPRVKVGTEWVSKGQNCEQVNWAVGAMAKGLYSRVFNWLVKKCNLTLDQKGIDRDYFIGVLDIAGFEIFDFNSFEQLWINFVNEKLQQFFNHHMFVLEQEEYAREGIQWVFIDFGLDLQACIELIEKPLGIISMLDEECIVPKATDLTLASKLVDQHLGKHPNFEKPKPPKGKQGEAHFAMRHYAGTVRYNCLNWLEKNKDPLNDTVVSAMKQSKGNDLLVEIWQDYTTQEEAAAKAKEGGGGGKKKGKSGSFMTVSMLYRESLNNLMTMLNKTHPHFIRCIIPNEKKQSGMIDAALVLNQLTCNGVLEGIRICRKGFPNRTLHPDFVQRYAILAAKEAKSDDDKKKCAEAIMSKLVNDGSLSEEMFRIGLTKVFFKAGVLAHLEDIRDEKL
notes: C. elegans body wall muscle myosin II heavy chain isoform B (MHC-B, UNC-54), motor domain, residues 1-790, cloned from C. elegans cDNA; In the SEC assays with UNC-45 the protein was heat-damaged (unfolded or misfolded) at 27 °C; Two vectors (pFastBac DUAL, pACEBac1) encode the same 1-790 His6 protein; also called myosin II heavy chain isoform B; UNC-54; source: High Five insect cells, …
For B1, the binding result in series [3] is listed as “binds”.

B2: UNC-45 G427E (ts mutant, bacterial) (natural protein, C. elegans, UniProt G5EG62 1-961, looked up)
chain: MVARVQTAEEIRDEGNAAVKDQDYIKADELYTEALQLTTDEDKALRPVLYRNRAMARLKRDDFEGAQSDCTKALEFDGADVKALFRRSLAREQLGNVGPAFQDAKEALRLSPNDKGIVEVLQRLVKANNDKIKQTTSLANKVTDMEKLAFRGEAKDTEQKMTALNNLLVLCRESESGATGVWNQGALVPFVLNLINDASENEEVTVTAIRILDETIKNSVRCMKFLAMHDPDGPKSVRFVCRLMCKKSTKDFVDATGILVQRVFNAMAKMDRQKEMKPDPEVAEANKIWIIRVLLELQEMLQDPKVGAVQRETCIDLFLKNLMHMDGGIPRGWSWKFVEERGLLALLDVASQIPELCEYPVSAETRQHVAICLQRLEEDMVFDTKRTIFKEKVDMFFNALISRCTNDDEGHKYRIKLSCFLITMLQEPVDIGINLITNDQLTPIMLEMAASQDHLMQGIAAELIVATVSKHERAINMLKVGIPVLRALYDSEDPTVKVRALVGLCKIGAAGGDDISKATMKEEAVISLAKTCKKFLLETEKYSVDIRRYACEGLSYLSLDADVKEWIVDDSLLLKALVLLAKKAGALCVYTLATIYANLSNAFEKPKVDEEMVKLAQFAKHHVPETHPKDTEEYVEKRVRALVEEGAVPACVAVSKTESKNALELIARSLLAFAEYEDLRGRIIAEGGTVLCLRLTKEASGEGKIKAGHAIAKLGAKADPMISFPGQRAYEVVKPLCDLLHPDVEGKANYDSLLTLTNLASVSDSIRGRILKEKAIPKIEEFWFMTDHEHLRAAAAELLLNLLFFEKFYEETVAPGTDRLKLWVLYSAEVEEERLSRASAAGFAILTEDENACARIMDEIKSWPEVFKDIAMHEDAETQRRGLMGIANIMHSSNKLCSEIVSSEVFRVLVAVTKLGTINQERAGSTEQAKRGLEAAEKFGLIKATDREIYERENQMSTIQE
notes: UNC-45, C. elegans, temperature-sensitive point mutant G427E; the SEC assays used the native protein; also called tsG427E; source: E. coli BL21(RIL), purified (NiNTA, anion exchange, SEC); SeMet protein from B834-DE3 cells
Consider B2, for which, in series [4], the binding result was “binds”.
